Measured values: ChEMBL document CHEMBL1201862, “PubChem BioAssay data set” (2004)
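Five concentrations, 48 hours, 96-well plates. GI50 is the concentration that inhibits growth by half.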 Active and inactive are the calls of the source. Rule as the data show it: active = GI50 up to about 1.1 µM and inactive = higher.

What was measured:
Test in all cases: growth of human tumour cells (NCI), 48 h
PC-3 = test system: PC-3
OVCAR-3 = test system: OVCAR-3
KM12 = test system: KM12
A498 = test system: A498
RXF 393 = test system: RXF 393
DU-145 = test system: DU-145
SF-268 = test system: SF-268
MCF7 = test system: MCF7
MOLT-4 = test system: MOLT-4
OVCAR-8 = test system: OVCAR-8
OVCAR-4 = test system: OVCAR-4
SK-OV-3 = test system: SK-OV-3
SW-620 = test system: SW-620
SN12C = test system: SN12C
COLO 205 = test system: COLO 205
CAKI-1 = test system: CAKI-1
SF-539 = test system: SF-539
RPMI-8226 = test system: RPMI-8226
EKVX = test system: EKVX
IGROV-1 = test system: IGROV-1

Measured: GI50

Cc1ccc(S(=O)(=O)NCCCSCCSCCCN)cc1
inactive: PC-3 > 100 µM | OVCAR-3 > 100 µM | KM12 > 100 µM | A498 > 100 µM | RXF 393 > 100 µM | DU-145 > 100 µM | SF-268 > 100 µM | MCF7 > 100 µM | MOLT-4 > 100 µM | OVCAR-8 > 100 µM | OVCAR-4 > 100 µM | SK-OV-3 > 100 µM | SW-620 > 100 µM | SN12C > 100 µM | COLO 205 > 100 µM

CCOC(=O)Cc1nc2cc(F)c(F)cc2[nH]c1=O
inactive: PC-3 > 100 µM | OVCAR-3 > 100 µM | KM12 > 100 µM | RXF 393 > 100 µM | DU-145 > 100 µM | CAKI-1 > 100 µM | SF-539 > 100 µM | SF-268 > 100 µM | MCF7 > 100 µM | MOLT-4 > 100 µM | OVCAR-8 > 100 µM | OVCAR-4 > 100 µM | SK-OV-3 > 100 µM | SW-620 > 100 µM | SN12C > 100 µM | COLO 205 > 100 µM | RPMI-8226 > 100 µM | EKVX > 100 µM

COc1ccc(Cc2nc3cc([N+](=O)[O-])ccc3n2C[C@@H]2CCCN3CCCCC23)cc1 (stereo partly drawn)
inactive: PC-3 27.1 µM | OVCAR-3 20.9 µM | KM12 16.3 µM | A498 16.6 µM | RXF 393 15.4 µM | DU-145 37.9 µM | CAKI-1 19.3 µM | MCF7 27.2 µM | IGROV-1 17.7 µM | MOLT-4 18.6 µM | OVCAR-8 45.7 µM | OVCAR-4 18.7 µM | SK-OV-3 20.2 µM | SW-620 26 µM | COLO 205 13.7 µM | EKVX 31 µM

Cc1ccc2nc(CN3CCCCC3)cc(=O)n2c1
inactive: PC-3 > 100 µM | OVCAR-3 > 100 µM | KM12 > 100 µM | DU-145 > 100 µM | CAKI-1 > 100 µM | SF-539 > 100 µM | SF-268 > 100 µM | MCF7 > 100 µM | IGROV-1 > 100 µM | MOLT-4 > 100 µM | OVCAR-8 > 100 µM | OVCAR-4 > 100 µM | SK-OV-3 > 100 µM | SW-620 > 100 µM | SN12C > 100 µM | COLO 205 > 100 µM | RPMI-8226 > 100 µM | EKVX > 100 µM

COC(CNC(=O)C(C)NC(=O)C(C)NC(=O)c1ccccc1)OC (stereo not drawn)
inactive: PC-3 > 100 µM | KM12 > 100 µM | RXF 393 > 100 µM | DU-145 > 100 µM | CAKI-1 > 100 µM | SF-539 > 100 µM | SF-268 > 100 µM | MCF7 > 100 µM | IGROV-1 > 100 µM | MOLT-4 > 100 µM | OVCAR-8 > 100 µM | OVCAR-4 > 100 µM | SK-OV-3 > 100 µM | SW-620 > 100 µM | SN12C > 100 µM | COLO 205 > 100 µM | RPMI-8226 > 100 µM | EKVX > 100 µM

O=C(CC(C(=O)c1cccs1)c1ccccc1)c1ccccc1O (stereo not drawn)
inactive: PC-3 14 µM | OVCAR-3 83 µM | KM12 20.9 µM | RXF 393 5.19 µM | DU-145 36.4 µM | CAKI-1 8.95 µM | SF-539 34.1 µM | SF-268 8.28 µM | MCF7 9.86 µM | IGROV-1 4.98 µM | MOLT-4 7.08 µM | OVCAR-8 9.62 µM | OVCAR-4 16.4 µM | SK-OV-3 8.57 µM | SW-620 46 µM | SN12C > 20.7 µM | COLO 205 > 50.7 µM | RPMI-8226 12.8 µM | EKVX 12.7 µM

CCOC(=O)c1c(-c2ccc(Cl)cc2)c(C#N)c(=S)n(C2OC(CO)C(O)C(O)C2O)c1-c1ccccc1 (stereo not drawn)
inactive: PC-3 19.9 µM | OVCAR-3 21.3 µM | KM12 34.5 µM | RXF 393 23 µM | DU-145 27.2 µM | CAKI-1 29.8 µM | SF-539 19.5 µM | SF-268 28.1 µM | MCF7 22.3 µM | IGROV-1 33.7 µM | MOLT-4 13.5 µM | OVCAR-4 33.5 µM | SK-OV-3 28.3 µM | SW-620 18.5 µM | SN12C 38.4 µM | COLO 205 30.1 µM | RPMI-8226 34.7 µM

O=P(Oc1ccc(Cl)cc1)(Oc1ccc(Cl)cc1)N1CC1
inactive: PC-3 > 10 µM | OVCAR-3 > 10 µM | KM12 > 10 µM | A498 > 10 µM | DU-145 > 10 µM | SF-539 > 10 µM | SF-268 > 10 µM | MCF7 > 10 µM | MOLT-4 > 10 µM | OVCAR-8 > 10 µM | OVCAR-4 > 10 µM | SK-OV-3 > 10 µM | SW-620 > 10 µM | SN12C > 10 µM | COLO 205 > 10 µM | RPMI-8226 > 10 µM | EKVX > 10 µM
